{
  "source": "patent US12655116B2",
  "about": "“Substituted isophthalic acid diamides” (Bayer Aktiengesellschaft, priority 2020, dated 2026)",
  "key": {"[1]": {"system": "MATIN", "experiment": "Post-emergence herbicidal action against MATIN", "format": "in vivo, Matricaria inodora", "how_it_was_run": "(§1)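 Percent herbicidal action is rated by eye about 3 weeks after treatment against untreated controls, where 100% means dead plants and 0% means like controls. Plants in sandy loam are sprayed on green parts at the one-leaf stage with aqueous WP or EC preparations at 600 to 800 l/ha plus 0.2% wetting agent.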"}, "[2]": {"system": "AMARE", "experiment": "Post-emergence herbicidal action against AMARE", "format": "in vivo, Amaranthus retroflexus", "conditions": "20 g/ha, visual assessment about 3 weeks after treatment, 100% = plants have died, 0% = like control plants", "how_it_was_run": "as §1"}, "[3]": {"system": "AVEFA", "experiment": "Pre-emergence herbicidal action against AVEFA", "format": "in vivo, Avena fatua", "conditions": "Avena fatua, 504 h; 80 g/ha, pre-emergence", "how_it_was_run": "(§2)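 Seeds sown in sandy loam, soil-covered; compound sprayed on soil surface pre-emergence. Application: WP/EC, 600–800 l/ha, 0.2% wetting agent. Readout: visual % damage at 3 weeks.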"}, "[4]": {"system": "ECHCG", "experiment": "Pre-emergence herbicidal action against ECHCG", "format": "in vivo, Echinochloa crus-galli", "how_it_was_run": "as §2"}, "[5]": {"system": "ALOMY", "experiment": "Pre-emergence herbicidal action against ALOMY", "format": "in vivo, Alopecurus myosuroides", "conditions": "Alopecurus myosuroides, 504 h, pre-emergence", "how_it_was_run": "as §2"}, "[6]": {"system": "MATIN", "experiment": "Pre-emergence herbicidal action against MATIN", "format": "in vivo, Matricaria inodora", "how_it_was_run": "as §2"}, "[7]": {"system": "ALOMY", "experiment": "Post-emergence herbicidal action against ALOMY", "format": "in vivo, Alopecurus myosuroides", "conditions": "dosage 20 g/ha, visual assessment about 3 weeks after treatment vs untreated controls", "how_it_was_run": "as §1"}, "[8]": {"system": "VERPE", "experiment": "Post-emergence herbicidal action against VERPE", "format": "in vivo, Veronica persica", "conditions": "20 g/ha", "how_it_was_run": "as §1"}, "[9]": {"system": "ABUTH", "experiment": "Post-emergence herbicidal action against ABUTH", "format": "in vivo, Abutilon theophrasti", "conditions": "visual assessment about 3 weeks after treatment vs untreated controls", "how_it_was_run": "as §1"}, "[10]": {"system": "VIOTR", "experiment": "Post-emergence herbicidal action against VIOTR", "format": "in vivo, Viola tricolor", "how_it_was_run": "as §1"}, "[11]": {"system": "VIOTR", "experiment": "Pre-emergence herbicidal action against VIOTR", "format": "in vivo, Viola tricolor", "how_it_was_run": "as §2"}, "[12]": {"system": "SETVI", "experiment": "Post-emergence herbicidal action against SETVI", "format": "in vivo, Setaria viridis", "conditions": "dosage 20 g/ha", "how_it_was_run": "as §1"}, "[13]": {"system": "PHBPU", "experiment": "Post-emergence herbicidal action against PHBPU", "format": "in vivo, Pharbitis purpurea", "how_it_was_run": "as §1"}, "[14]": {"system": "ABUTH", "experiment": "Pre-emergence herbicidal action against ABUTH", "format": "in vivo, Abutilon theophrasti", "how_it_was_run": "as §2"}, "[15]": {"system": "POLCO", "experiment": "Pre-emergence herbicidal action against POLCO", "format": "in vivo, Polygonum convolvulus", "conditions": "dosage 80 g/ha", "how_it_was_run": "as §2"}, "[16]": {"system": "AVEFA", "experiment": "Post-emergence herbicidal action against AVEFA", "format": "in vivo, Avena fatua", "conditions": "20 g/ha, visual assessment about 3 weeks after treatment, 100% = plants have died, 0% = like control plants", "how_it_was_run": "as §1"}, "[17]": {"system": "AMARE", "experiment": "Pre-emergence herbicidal action against AMARE", "format": "in vivo, Amaranthus retroflexus", "how_it_was_run": "as §2"}, "[18]": {"system": "SETVI", "experiment": "Pre-emergence herbicidal action against SETVI", "format": "in vivo, Setaria viridis", "conditions": "dosage 80 g/ha", "how_it_was_run": "as §2"}, "[19]": {"system": "ECHCG", "experiment": "Post-emergence herbicidal action against ECHCG", "format": "in vivo, Echinochloa crus-galli", "conditions": "dosage 20 g/ha", "how_it_was_run": "as §1"}, "[20]": {"system": "VERPE", "experiment": "Pre-emergence herbicidal action against VERPE", "format": "in vivo, Veronica persica", "conditions": "dosage 80 g/ha", "how_it_was_run": "as §2"}, "[21]": {"conditions": "Tripleurospermum inodorum, 504 h, dosage 20 g/ha"}, "[22]": {"conditions": "80 g/ha, scored visually after 3 weeks vs untreated controls (100% = plants have died, 0% = like control plants)"}},
  "data": [
    {"smiles": "CCn1nnnc1NC(=O)c1ccc(C(F)(F)F)c(C(=O)NC2CC2)c1SC", "note": "[Example 2-83]", "values": [
      {"measurement": "pest or weed control at 5 g/ha", "setting": "[1]; Tripleurospermum inodorum, 504 h, dosage 5 g/ha", "result": 80, "unit": "%"},
      {"measurement": "pest or weed control at 20 g/ha", "setting": "[1]; [21]", "result": 100, "unit": "%"},
      {"measurement": "pest or weed control at 20 g/ha", "setting": "[2]; Amaranthus retroflexus, 504 h", "result": 100, "unit": "%"},
      {"measurement": "pest or weed control at 80 g/ha", "setting": "[3]", "result": 90, "unit": "%"},
      {"measurement": "pest or weed control at 80 g/ha", "setting": "[4]; Echinochloa crus-galli, 504 h, 80 g/ha", "result": 90, "unit": "%"},
      {"measurement": "pest or weed control at 80 g/ha", "setting": "[5]; [22]", "result": 90, "unit": "%"},
      {"measurement": "pest or weed control at 20 g/ha", "setting": "[5]; 20 g/ha, scored visually after 3 weeks, 100% = plants have died, 0% = like control plants", "result": 90, "unit": "%"},
      {"measurement": "pest or weed control at 20 g/ha", "setting": "[6]; [21]", "result": 100, "unit": "%"},
      {"measurement": "pest or weed control at 80 g/ha", "setting": "[6]; Tripleurospermum inodorum, 504 h, dosage 80 g/ha", "result": 100, "unit": "%"},
      {"measurement": "pest or weed control at 20 g/ha", "setting": "[7]; Alopecurus myosuroides, 504 h", "result": 100, "unit": "%"},
      {"measurement": "pest or weed control at 20 g/ha", "setting": "[8]; Veronica persica, 504 h", "result": 80, "unit": "%"},
      {"measurement": "pest or weed control at 5 g/ha", "setting": "[9]; Abutilon theophrasti, 504 h, dosage 5 g/ha", "result": 90, "unit": "%"},
      {"measurement": "pest or weed control at 20 g/ha", "setting": "[9]; Abutilon theophrasti, 504 h, dosage 20 g/ha", "result": 90, "unit": "%"},
      {"measurement": "pest or weed control at 5 g/ha", "setting": "[10]; Viola tricolor, 504 h, 5 g/ha", "result": 80, "unit": "%"},
      {"measurement": "pest or weed control at 20 g/ha", "setting": "[10]; Viola tricolor, 504 h, 20 g/ha", "result": 80, "unit": "%"},
      {"measurement": "pest or weed control at 80 g/ha", "setting": "[11]; Viola tricolor, 504 h, dosage 80 g/ha", "result": 100, "unit": "%"},
      {"measurement": "pest or weed control at 20 g/ha", "setting": "[12]; Setaria viridis, 504 h", "result": 100, "unit": "%"},
      {"measurement": "pest or weed control at 20 g/ha", "setting": "[13]; Ipomoea purpurea, 504 h, dosage 20 g/ha", "result": 80, "unit": "%"},
      {"measurement": "pest or weed control at 80 g/ha", "setting": "[14]; Abutilon theophrasti, 504 h, 80 g/ha, scored visually after 3 weeks vs untreated controls (100% = plants have died, 0% = like control plants)", "result": 100, "unit": "%"},
      {"measurement": "pest or weed control at 20 g/ha", "setting": "[14]; Abutilon theophrasti, 504 h, dosage 20 g/ha, scored visually after 3 weeks vs untreated controls, 100% = plants have died, 0% = like control plants, read-out: Pre-emergence action against ABUTH (herbicidal activity in percent)", "result": 100, "unit": "%"},
      {"measurement": "pest or weed control at 80 g/ha", "setting": "[15]; Fallopia convolvulus, 504 h", "result": 90, "unit": "%"},
      {"measurement": "pest or weed control at 20 g/ha", "setting": "[16]; Avena fatua, 504 h", "result": 90, "unit": "%"},
      {"measurement": "pest or weed control at 20 g/ha", "setting": "[17]; Amaranthus retroflexus, 504 h, 20 g/ha, scored visually after 3 weeks vs untreated controls, 100% = plants have died, 0% = like control plants", "result": 100, "unit": "%"},
      {"measurement": "pest or weed control at 80 g/ha", "setting": "[17]; Amaranthus retroflexus, 504 h, 80 g/ha, scored visually after 3 weeks vs untreated controls, 100% = plants have died, 0% = like control plants", "result": 100, "unit": "%"},
      {"measurement": "pest or weed control at 80 g/ha", "setting": "[18]; Setaria viridis, 504 h", "result": 100, "unit": "%"},
      {"measurement": "pest or weed control at 20 g/ha", "setting": "[19]; Echinochloa crus-galli, 504 h", "result": 90, "unit": "%"}
    ]},
    {"smiles": "CCn1nnnc1NC(=O)c1ccc(C(F)(F)F)c(C(=O)NC(C)C2CC2)c1SC", "note": "(stereo not shown) [Example 2-350]", "values": [
      {"measurement": "Post-emergence action against MATIN in %", "setting": "[1]; dosage 5 g/ha", "result": 80, "unit": "%"},
      {"measurement": "Post-emergence action against MATIN in %", "setting": "[1]; dosage 20 g/ha", "result": 90, "unit": "%"},
      {"measurement": "Post-emergence action at 20 g/ha against AMARE in %", "setting": "[2]", "result": 100, "unit": "%"},
      {"measurement": "Pre-emergence action against ECHCG in %", "setting": "[4]; 20 g/ha", "result": 80, "unit": "%"},
      {"measurement": "Pre-emergence action against ECHCG in %", "setting": "[4]; 80 g/ha", "result": 100, "unit": "%"},
      {"measurement": "Pre-emergence action against MATIN in %", "setting": "[6]; dosage 20 g/ha", "result": 100, "unit": "%"},
      {"measurement": "Pre-emergence action against MATIN in %", "setting": "[6]; dosage 80 g/ha", "result": 100, "unit": "%"},
      {"measurement": "Post-emergence action against ALOMY in %", "setting": "[7]", "result": 80, "unit": "%"},
      {"measurement": "Post-emergence action against VERPE in %", "setting": "[8]", "result": 80, "unit": "%"},
      {"measurement": "Post-emergence action against ABUTH in %", "setting": "[9]; dosage 20 g/ha", "result": 80, "unit": "%"},
      {"measurement": "Post-emergence action against VIOTR in %", "setting": "[10]; 5 g/ha", "result": 100, "unit": "%"},
      {"measurement": "Post-emergence action against VIOTR in %", "setting": "[10]; 20 g/ha", "result": 100, "unit": "%"},
      {"measurement": "Pre-emergence action against VIOTR in %", "setting": "[11]; dosage 20 g/ha", "result": 100, "unit": "%"},
      {"measurement": "Pre-emergence action against VIOTR in %", "setting": "[11]; dosage 80 g/ha", "result": 100, "unit": "%"},
      {"measurement": "Post-emergence action against SETVI in %", "setting": "[12]", "result": 100, "unit": "%"},
      {"measurement": "Post-emergence action against PHBPU in %", "setting": "[13]; dosage 5 g/ha", "result": 80, "unit": "%"},
      {"measurement": "Post-emergence action against PHBPU in %", "setting": "[13]; dosage 20 g/ha", "result": 80, "unit": "%"},
      {"measurement": "Pre-emergence action against ABUTH (herbicidal activity)", "setting": "[14]; [22]", "result": 100, "unit": "%"},
      {"measurement": "Pre-emergence action against ABUTH (herbicidal activity in percent)", "setting": "[14]; dosage 20 g/ha, scored visually after 3 weeks vs untreated controls, 100% = plants have died, 0% = like control plants", "result": 100, "unit": "%"},
      {"measurement": "Pre-emergence action against POLCO in %", "setting": "[15]", "result": 100, "unit": "%"},
      {"measurement": "Post-emergence action at 20 g/ha against AVEFA in %", "setting": "[16]", "result": 90, "unit": "%"},
      {"measurement": "Pre-emergence action against VERPE in %", "setting": "[20]", "result": 100, "unit": "%"},
      {"measurement": "Pre-emergence action against AMARE in %", "setting": "[17]; 20 g/ha, scored visually after 3 weeks vs untreated controls, 100% = plants have died, 0% = like control plants", "result": 100, "unit": "%"},
      {"measurement": "Pre-emergence action against AMARE in %", "setting": "[17]; [22]", "result": 100, "unit": "%"},
      {"measurement": "Pre-emergence action against SETVI in %", "setting": "[18]", "result": 100, "unit": "%"},
      {"measurement": "Post-emergence action against ECHCG in %", "setting": "[19]", "result": 100, "unit": "%"}
    ]}
  ]
}
